Test results: article PMC10126473 (Frontiers in Pharmacology, 2023)

Assay: PBPK model (GastroPlus): simulation and model parameters incl. permeability surface product and scaled metabolic kinetics, mouse
Details: for Liver Vmax / Plasma k: in vivo (scaled)
Description: CL in vitro,app expressed as mL/min/mg microsomes were scaled to the predicted CLintrinsic using scaling factor (SF), microsome level and liver weight as indicated below: CLintrinsic=CLin vitro,app×SF×liver weight×microsome level per gram liver
All modeling and simulation were carried out using GastroPlus version 9.5 (Simulations Plus Inc., CA). Physiochemical parameters including blood-to-plasma ratio (Rbp), pKa, and logP were predicted by ADMET predictor (Simulations Plus Inc., CA). Physiologies of all species, including organ weights, volumes, tissue compositions, and blood perfusion rates, were generated by the program’s internal module. Tissue intracellular unbound fractions were generated by GastroPlus based on predicted or experimentally determined physiochemical and chemical-biological parameters including pKa, logP, plasma unbound fractions (Fup), Rbp, solubility, and PAMPA permeability. The PBPK model structure is illustrated in Figure 2 and its parameters are summarized in Supplementary Tables S3–6. The default absorption and dissolution model was applied and effective intestine permeability was predicted by a built-in correlation from the experimental PAMPA permeability result. Parameters including partition coefficients in tissue (Kp), CLintrinsic, and permeability surface area product (PStc) were estimated by fitting the model to experimental data using the optimization module in GastroPlus with objective function weights at 1/(y + ŷ)^2, where y is the observed value and ŷ is the predicted value.
Model parameter estimation of all plasma-tissue partition coefficients (Kp) was performed simultaneously using both the IV and PO datasets. […] The experimentally determined pharmacokinetic profiles were compared with the model simulations.

O=C(Nc1ccc([N+](=O)[O-])cc1Cl)c1cc(Cl)ccc1OC(=O)N1CCNCC1 [PDN]
Liver Vmax (conversion to Nc): 0.0015 mg/s/mg microsomes | Plasma k (conversion to Nc): 0.0067 s⁻¹ | Gut Vmax (conversion to Nc, in vivo, predicted from in vitro liver parameters): 0.00004 mg/s/mg microsomes | Liver Vmax (conversion to Others): 0.2310 mg/s/mg microsomes | Plasma k (conversion to Others): 0.0080 s⁻¹
